According to patent publication US7371766B2, “Curcumin analogs with anti-tumor and anti-angiogenic properties” (Emory University, priority 1999, dated 2008):

How the values were obtained:
[1] = tested on: Tissue Factor (TF) production by human melanoma cell line RPMI-7951; assay: TF ELISA, RPMI-7951; type: cell-based
Procedure: (§1) IMUBIND Tissue Factor ELISA Kit (American Diagnostica Inc, Greenwich, Conn.) was used to determine TF concentration in each sample. The ELISA was carried out according to manufacturer's procedure.

[2] = tested on: Vascular Endothelial Growth Factor (VEGF) production by human prostate cancer cell line DU-145; assay: VEGF ELISA, DU-145; type: cell-based; conditions: for VEGF (% of DMSO): DMSO = 100%
[3] = tested on: Vascular Endothelial Growth Factor (VEGF) production by human prostate cancer cell line PC-3; assay: VEGF ELISA, PC-3; type: cell-based; conditions: for VEGF (% of DMSO): DMSO = 100%
[4] = tested on: Tissue Factor (TF) production by human prostate cancer cell line DU-145; assay: TF ELISA, DU-145; type: cell-based; conditions: 20 μM; for TF (% of DMSO): DMSO = 100%; for TF: mean of triplicate and S.D., DMSO 7699 ± 406
Procedure: (§2) Cells were treated with 1% Triton X-100 in PBS and left overnight at 4° C. overnight to solubilize TF. […] IMUBIND Tissue Factor ELISA Kit (American Diagnostica Inc, Greenwich, Conn.) was used to determine TF concentration in each sample. The ELISA was carried out according to manufacturer's procedure.

[5] = tested on: Tissue Factor (TF) production by human prostate cancer cell line PC-3; assay: TF ELISA, PC-3; type: cell-based; conditions: 20 μM; for TF (% of DMSO): DMSO = 100%; for TF: mean of triplicate and S.D., DMSO 203 ± 6
Procedure: as §2

[6] = tested on: Tissue Factor (TF) production by human breast cancer cell line MDA-MB-231; assay: TF ELISA, MDA-MB-231; type: cell-based
Procedure: as §1

RPMI 7951 = assay: Emory Laboratory Cell Screen, Neutral Red, RPMI 7951; type: cell-based, human; conditions: Homo sapiens, RPMI 7951, Melanoma, 72 hours, read-out: Median Growth Inhibitory Concentration (GI50)
Procedure: (§3) Human tumor and endothelial cell lines were treated for 72 hours with compounds at a minimum of four concentrations between 0.1 μM-40 μM. Neutral Red assay was used to calculate cell viability.

MDA-MB-231 = assay: Emory Laboratory Cell Screen, Neutral Red, MDA-MB-231; type: cell-based, human; conditions: Homo sapiens, MDA-MB-231, Breast Cancer, 72 hours, read-out: Median Growth Inhibitory Concentration (GI50)
Procedure: as §3

MDA-MB-435 = assay: Emory Laboratory Cell Screen, Neutral Red, MDA-MB-435; type: cell-based, human; conditions: Homo sapiens, MDA-MB-435, Breast Cancer, 72 hours, read-out: Median Growth Inhibitory Concentration (GI50)
Procedure: as §3

HUVECS = assay: Emory Laboratory Cell Screen, Neutral Red, HUVECS; type: cell-based, human; conditions: Homo sapiens, HUVEC, 72 hours, read-out: Median Growth Inhibitory Concentration (GI50)
Procedure: as §3

[7] = tested on: Human tumor and endothelial cell lines; assay: Emory Laboratory Cell Screen, mean over cell lines; type: cell-based; conditions: Homo sapiens, Endothelial cell; Mean over the Emory cell lines; 72 hours; read-out: Median Growth Inhibitory Concentration (GI50), Mean
Procedure: as §3

[8] = Table 5, 5 μM, DMSO control 7054
[9] = Table 5, 20 μM, DMSO control 7054
[10] = 20 μM, mean of triplicate and S.D., DMSO 18760 ± 2633
[11] = Table 4, 20 μM, mean of triplicate and S.D.
[12] = 20 μM, mean of triplicate and S.D., DMSO 2103 ± 100

SMILES	TF ([1]; 5 μM, DMSO = 100)	TF ELISA ([1]; 5 μM, DMSO control 7054)	TF ([1]; 20 μM, DMSO = 100)	TF ELISA ([1]; 20 μM, DMSO control 7054)	TF [1, 8]	TF [1, 9]	VEGF (% of DMSO) ([2]; 20 μM)	VEGF [2, 10]	VEGF ([2]; Table 4, 20 μM, DMSO = 100)	VEGF [2, 11]	VEGF (% of DMSO) ([3]; 20 μM)	VEGF [3, 12]	VEGF ([3]; Table 4, 20 μM, DMSO = 100)	VEGF [3, 11]	TF (% of DMSO) [4]	TF [4]	TF (% of DMSO) [5]	TF [5]	GI50 (RPMI 7951)	GI50 [7]	further results
COc1cc(/C=C/C(=O)CC(=O)/C=C/c2ccc(O)c(OC)c2)ccc1O [Curcumin]	126%	7974 pg/ml/well	15%	1026 pg/ml/well	8871 pg/mL	1026 pg/mL	(96%)	17957 ± 1910 pg/mL	96%	17957 ± 1910 pg/mL	(99%)	2088 ± 103 pg/mL	99%	2088 ± 103 pg/mL	(93%)	7134 ± 301 pg/mL	(68%)	138 ± 10 pg/mL	6.3 µM	14.8 µM	TF ([6]; 5 μM, DMSO = 100): 100%; TF ([6]; 5 μM, DMSO control 45753): 45814 pg/mL; TF ([6]; 10 μM, DMSO = 100): 98%; TF ([6]; 10 μM, DMSO control 45753): 44727 pg/mL; GI50 (MDA-MB-231): 11.6 µM; GI50 (MDA-MB-435): 16.3 µM; GI50 (HUVECS): 25 µM
C(=C\c1ccccc1)/S/C=C/c1ccccc1 [EF15]	106%	7506 pg/ml/well	109%	7663 pg/ml/well	7506 pg/mL	7663 pg/mL	–	–	–	–	–	–	–	–	–	–	–	–	–	–	TF ([6]; 20 μM, DMSO = 100): 101%; TF ([6]; 20 μM, DMSO control 45753): 46394 pg/mL
O=C1C(=Cc2ccccc2O)CCCC1=Cc1ccccc1O [EF4, 2,6Bis(2-hydroxybenzylidene)cyclohexanone]	–	–	–	–	–	–	(55%)	10274 ± 4467 pg/mL	55%	10274 ± 4467 pg/mL	(2%)	48 ± 83 pg/mL	2%	48 ± 83 pg/mL	(67%)	5180 ± 420 pg/mL	(16%)	33 ± 7 pg/mL	3.6 µM	3.6 µM	–
